Consider five molecules from ChEMBL document CHEMBL1201862, “PubChem BioAssay data set” (2004).

Test systems include DMS-114; K562; HCC 2998; SN12C; DU-145; HCT-15; TK-10; COLO 205; T47D; SF-539; A549; NCI-H23; OVCAR-8; HL-60; SR; MOLT-4; MCF7; MDA-MB-435; MDA-N; KM12.
Experiment in all cases: NCI anticancer screen, dose series, 48 h

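Five concentrations, 48 hours, 96-well plates. GI50: concentration for 50% inhibition of growth.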 The source made the active and inactive calls. No stated cut-off is given here; in the data, active = GI50 up to about 1.1 µM and inactive = higher.

As for `O=C1C=C(NCCc2ccccc2)c2ccccc2C1=O`, the GI50 in the assay with DMS-114 was 1.92 µM (inactive); in the assay on K562 it was 4.34 µM (inactive); with HCC 2998, 1.79 µM (inactive); in the assay on SN12C it was 1.85 µM (inactive); with DU-145 it was 1.75 µM (inactive); in the assay with HCT-15, 1.67 µM. Moreover, the GI50 was 14.2 µM (inactive) in the assay on TK-10; 1.83 µM (inactive) in the assay on COLO 205; 16.7 µM (inactive) in the assay with T47D; 2.19 µM (inactive) in the assay on SF-539; 1.95 µM (inactive) in the assay with A549; 2.33 µM (inactive) in the assay on NCI-H23. In addition, the GI50 was 6.38 µM (inactive) with OVCAR-8; 1.69 µM (inactive) in the assay on HL-60; 5.94 µM (inactive) with SR; 7.33 µM (inactive) in the assay with MOLT-4; 1.67 µM (inactive) with MCF7; 0.925 µM (active) in the assay on MDA-MB-435. Moreover, the figures for the GI50 in the assay with MDA-N and in the assay on KM12 were 1.78 µM (inactive) and 2.63 µM (inactive), respectively.
On to `CCn1c2c(c3ccccc31)[C@@H](c1ccc(Cl)cc1)CC1C(=O)N(c3ccccc3)C(=O)C21` (stereo not given in full), for which the GI50 in the assay on DMS-114 is 46.8 µM (inactive); with K562 it was 77.3 µM (inactive); with HCC 2998, 86.9 µM (inactive); with SN12C, 75.5 µM (inactive); in the assay on HCT-15 it was above 100 µM; with TK-10, > 100 µM (inactive). Moreover, the GI50 in the assay with COLO 205 was > 100 µM (inactive); in the assay on SF-539, 31.8 µM (inactive); with A549, > 100 µM (inactive); in the assay with NCI-H23, 95.3 µM (inactive); in the assay on OVCAR-8, > 100 µM (inactive); with HL-60, 16.4 µM (inactive). Besides, the GI50 with SR was 12.8 µM (inactive); with MOLT-4, 42.7 µM (inactive); in the assay with KM12 it was > 100 µM (inactive).
`CC1=C(c2cc(C(=O)Nc3cc(C)ccc3C)nc(N)n2)Sc2ccccc2N1`: the GI50 is > 100 µM (inactive) with DMS-114; > 100 µM (inactive) with K562; > 100 µM (inactive) with HCC 2998; > 100 µM (inactive) in the assay on SN12C; above 100 µM in the assay with HCT-15; > 100 µM (inactive) with TK-10. Further, the GI50 in the assay with COLO 205, with SF-539, in the assay on A549, in the assay with NCI-H23, in the assay on OVCAR-8 and in the assay on HL-60 was > 100 µM (inactive) each time. The values for the GI50 in the assay on SR, in the assay on MOLT-4 and in the assay on KM12 were 65.8 µM (inactive), > 100 µM (inactive) and > 100 µM (inactive), respectively.
Take `COC1=CC(=Nc2c(Cl)cc(Cl)cc2OC(=O)c2ccc([N+](=O)[O-])cc2)C=C(OC)C1=O`: the GI50 is 3.79 µM (inactive) with DMS-114; 2.53 µM (inactive) in the assay on K562; 18.2 µM (inactive) in the assay on HCC 2998; 11.8 µM (inactive) in the assay on SN12C; 5.97 µM in the assay with HCT-15; 22.8 µM (inactive) with TK-10. Also, the GI50 with COLO 205 is 17.5 µM (inactive); in the assay with SF-539 it was 5.81 µM (inactive); in the assay on A549, 9.77 µM (inactive); with NCI-H23, 9.12 µM (inactive); with OVCAR-8 it was 7.35 µM (inactive); in the assay with HL-60 it was 1.83 µM (inactive). Besides, the GI50 in the assay with SR is 3.22 µM (inactive); in the assay on MOLT-4, 2.87 µM (inactive); in the assay on KM12, 15.5 µM (inactive).
Take `CC1=NOC(=O)/C1=C/c1ccccc1O`: the GI50 in the assay on DMS-114 is > 100 µM (inactive); in the assay on K562 it was > 100 µM (inactive); in the assay on HCC 2998, > 100 µM (inactive); with SN12C, > 100 µM (inactive); in the assay with HCT-15, above 100 µM; with TK-10, > 100 µM (inactive). Further, the GI50 in the assay on COLO 205, in the assay with SF-539, in the assay with A549, in the assay with NCI-H23, with OVCAR-8 and in the assay with HL-60 was > 100 µM (inactive) each time. The GI50 with SR, in the assay on MOLT-4 and in the assay with KM12 was > 100 µM (inactive) in each case.
